Test results: ChEMBL document CHEMBL1150399, “Evaluation of novel hyphodermin derivatives as glycogen phosphorylase a inhibitors” (Bioorg Med Chem, 2008)
Activity calls are given as the source filed them. The rule behind the calls is not given here.

How the values were obtained:
[1] = target: T1, Glycogen phosphorylase, muscle form (Oryctolagus cuniculus) (UniProt P00489); assay: Inhibition of rabbit muscle glycogen phosphorylase assessed as release of phosphate from glucose 1 phosphate at 0.222 to 22 mM
T1 sequence (whole entry): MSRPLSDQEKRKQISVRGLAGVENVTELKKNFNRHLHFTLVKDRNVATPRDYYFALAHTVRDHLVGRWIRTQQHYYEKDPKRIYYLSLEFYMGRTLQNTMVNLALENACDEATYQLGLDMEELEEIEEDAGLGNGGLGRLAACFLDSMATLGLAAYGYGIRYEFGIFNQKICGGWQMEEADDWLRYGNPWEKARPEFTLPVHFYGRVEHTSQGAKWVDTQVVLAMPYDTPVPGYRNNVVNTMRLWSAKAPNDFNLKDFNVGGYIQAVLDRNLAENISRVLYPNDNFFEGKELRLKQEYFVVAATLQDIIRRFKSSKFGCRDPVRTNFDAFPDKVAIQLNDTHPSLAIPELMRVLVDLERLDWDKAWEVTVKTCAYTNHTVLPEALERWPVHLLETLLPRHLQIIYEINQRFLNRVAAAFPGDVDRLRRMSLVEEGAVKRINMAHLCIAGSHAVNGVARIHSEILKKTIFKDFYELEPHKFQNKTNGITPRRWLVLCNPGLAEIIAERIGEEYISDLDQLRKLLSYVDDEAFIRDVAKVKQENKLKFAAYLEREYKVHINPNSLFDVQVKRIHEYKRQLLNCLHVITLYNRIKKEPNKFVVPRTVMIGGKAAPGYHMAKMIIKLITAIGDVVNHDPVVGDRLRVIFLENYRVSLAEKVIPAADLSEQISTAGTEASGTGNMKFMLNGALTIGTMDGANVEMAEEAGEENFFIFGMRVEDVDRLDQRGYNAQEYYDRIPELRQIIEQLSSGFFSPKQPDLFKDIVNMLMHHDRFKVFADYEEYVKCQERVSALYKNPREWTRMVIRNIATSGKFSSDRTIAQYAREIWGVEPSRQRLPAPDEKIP

[2] = target: T1, Glycogen phosphorylase, muscle form (Oryctolagus cuniculus); assay: Inhibition of rabbit glycogen phosphorylase assessed as release of phosphate from glucose 1 phosphate at 22 mM
[3] = target: T2, Glycogen phosphorylase, muscle form (Oryctolagus cuniculus, UniProt P00489); assay: Inhibition of rabbit muscle glycogen phosphorylase assessed as release of phosphate from glucose 1 phosphate
T2 sequence (P00489 whole entry): T1 sequence (whole entry)

[4] = target: T1, Glycogen phosphorylase, muscle form (Oryctolagus cuniculus); assay: Inhibition of rabbit glycogen phosphorylase assessed as release of phosphate from glucose 1 phosphate at <=1.4 to 3 mM
[5] = target: T1, Glycogen phosphorylase, muscle form (Oryctolagus cuniculus); assay: Inhibition of rabbit glycogen phosphorylase assessed as release of phosphate from glucose 1 phosphate at 3 mM

| SMILES | Activity [1] | other results |
| --- | --- | --- |
| O=C(O)c1ccc2c3c1C(=O)N(Cc1ccccc1)C3=CCC2 | – | inhibition [2]: 46%; IC50 [3]: 1100 µM |
| O=C(O)c1ccc2c3c1C(=O)N(Cc1ccccc1)C3(O)CCC2 (stereo not drawn) | – | inhibition [2]: 65%; IC50 [3]: 1200 µM |
| CC1(C)c2ccc3c(c2C(=O)[C@@H]2O[C@@H]21)[C@H](O)OC3=O (racemic) | inactive | Activity [4]: inactive |
| O=C(O)c1ccc2c(c1C(=O)N1CCOCC1)C(=O)CCC2 | inactive | – |
| COC1OC(=O)c2ccc3c(c21)C(=O)C=CC3(C)C (stereo not drawn) | – | inhibition [5]: 15% |
| O=C(O)c1ccc2c3c1C(=O)N(c1ccccc1)C3=CCC2 | – | inhibition [2]: 46%; IC50 [3]: 800 µM |
| O=C1OC(=O)c2c1ccc1c2C(=O)CCC1 | inactive | – |
| CCCCCSC(=O)c1c(C(=O)O)ccc2c1C(=O)CCC2 | – | inhibition [2]: 55%; IC50 [3]: 1300 µM |
| O=C(O)c1ccc2c(c1C(=O)NCc1ccccc1)C(=O)CCC2 | – | inhibition [2]: 89%; IC50 [3]: 11700 µM |
| O=C(O)c1ccc2c3c1C(=O)N(c1ccccc1)C3(O)CCC2 (stereo not drawn) | inactive | – |
| O=C(O)c1ccc2c(c1C(=O)Nc1ccccc1)C(=O)CCC2 | inactive | – |
| CC1(C)C=CC(=O)c2c1ccc1c2C(O)OC1=O (stereo not drawn) | inactive | – |

Further lines, with some results ahead:

| Activity [1] | SMILES | other results |
| --- | --- | --- |
| inactive | CCN(CC)C(=O)c1c(C(=O)O)ccc2c1C(=O)CCC2 | – |
| inactive | COC(=O)c1ccc2c(c1C(=O)OC)C(=O)C(Br)CC2(C)C (stereo not drawn) | – |
| inactive | CC(C)OC(=O)c1c(C(=O)O)ccc2c1C(=O)CCC2 | – |
| inactive | COC(=O)c1ccc2c(c1C(=O)OC)C(=O)C=CC2(C)C | – |
| inactive | CC1(C)CCC(=O)c2c1ccc(C(=O)O)c2C(=O)O | – |
| inactive | COC(=O)c1ccc2c(c1C(=O)OC)C(=O)CCC2 | – |
| inactive | CO[C@@H]1OC(=O)c2ccc3c(c21)C(=O)[C@@H]1O[C@@H]1C3(C)C (racemic) | Activity [4]: inactive |
| inactive | O=C(O)c1ccc2c(c1C(=O)O)C(=O)CCC2 | – |
| inactive | CC1(C)C=CC(=O)c2c1ccc(C(=O)O)c2C(=O)O | – |
| inactive | CC1(C)CCC(=O)c2c1ccc1c2C(O)OC1=O (stereo not drawn) | Activity [4]: inactive |
| inactive | COC(=O)c1c(C(=O)O)ccc2c1C(=O)CCC2 | – |
| inactive | COC(=O)c1ccc2c(c1C(=O)OC)C(=O)CCC2(C)C | – |
| inactive | COC(=O)c1ccc2c(c1C(=O)OC)C(=O)[C@@H]1O[C@@H]1C2(C)C (racemic) | – |
